Values joined by “and” are separate entries in the source; they are usually repeats but may differ in a detail not shown here. Equal values may be shown once.
Columns and labels:
[1] = test system: locally advanced or metastatic, c-Kit positive GIST; test: Phase 2 clinical trial in advanced GIST, efficacy (RECIST, FDG-PET, PFS, OS); type: in vivo, human
Source text: Methods; Patients: Patients enrolled in this study were aged over 18 years with inoperable, non-pretreated, histologically proven locally advanced or metastatic, c-Kit positive GIST. […] Exclusion criteria included: inadequate organ function defined via blood tests, severe liver or cardiac failure, and severe neurological or psychiatric disorders. Patients receiving a concomitant treatment within 4 weeks before inclusion, and pregnant or lactating women were also excluded. […] Time-to-event analyses were calculated from the date of first masitinib intake to the date of event (documented progression or death). Patients who had not progressed at the date of last tumor assessment were censored at that date for PFS. Patients alive at the time of the analysis were censored at the date of last contact for OS. Methods; Statistical analyses: Simon […] two-stage design was used for this prospective, multicenter, single-group, phase II trial. Fourteen patients were initially enrolled, with recruitment of an additional ten patients being dependent on the occurrence of at least one objective RECIST response. This population was further extended to a total of 30 patients to ensure a sufficient evaluable population for all end-points; the type I(α) error was 5% (two-sided) for all analyses. Quantitative variables were described by the number of filled and missing data, mean, standard deviation, median, minimum and maximum Qualitative variables were described by the number of missing data and, for each modality, frequency and percentage (referring to filled data). Time-to-event data were described using Kaplan-Meier (KM) estimates. The median was provided with its 95% confidence interval (95% CI). PFS rates were given every 6 months with KM estimates. All data analyses and reporting procedures used SAS v9.1 in a Windows XP operating system environment.

Solubility = type: physicochemical
Experimental: For detailed procedure refer to patent WO/2008/098949. AB1010 is also manufactured by AB Science, S.A. (France), or by Prestwick Chemical, Inc. (France). The chemical structure was confirmed by nuclear magnetic resonance, mass spectrometry, ultraviolet and infrared spectrometry, and elemental analysis. […] The compound, a white powder, was prepared according to the art to provide tablets. Tablet containing masitinib was used for each experiment.

[2] = Kaplan-Meier estimate, listed as masitinib

Compound: Cc1ccc(NC(=O)c2ccc(CN3CCN(C)CC3)cc2)cc1Nc1nc(-c2cccnc2)cs1 [Compound 066, 4-(4-methyl-piperazin-1-ylmethyl)-N-[4-methyl-3-(4-pyridin-3-yl-thiazol-2-ylamino)-phenyl]-benzamide]
- patients who never benefited from treatment (early resistance) ([1]; 1/30 patient): 3.3%
- OS rates (%) [95% CI] 12 months [1, 2]: 96.7%
- OS rates (%) [95% CI] 24 months [1, 2]: 89.9%
- OS rates (%) [95% CI] 36 months [1, 2]: 89.9%
- PFS rate (%) [95% CI] 6 months [1, 2]: 88.9%
- PFS rate (%) [95% CI] 12 months [1, 2]: 76.8%
- PFS rate (%) [95% CI] 24 months [1, 2]: 59.7% and 60%
- PFS rate (%) [95% CI] 36 months [1, 2]: 55.4% and 55%
- PFS Median ([1]; Kaplan-Meier, ITT N = 30): 41.3 months
- Metabolic response CMR, At 1 month ([1]; N = 13, FDG-PET, complete metabolic response): 0 (0.0%) n (%)
- Metabolic response CMR + PMR, At 1 month ([1]; N = 13, FDG-PET, metabolic response rate): 9 (69.2%) n (%)
- Metabolic response PMR, At 1 month ([1]; N = 13, FDG-PET, partial metabolic response, listed as masitinib): 9 (69.2%) n (%)
- Metabolic response SMD, At 1 month ([1]; N = 13, FDG-PET, stable metabolic disease, listed as masitinib): 4 (30.8%) n (%)
- Metabolic response CMR, At 2 months ([1]; N = 14, FDG-PET, complete metabolic response, listed as masitinib): 3 (21.4%) n (%)
- Metabolic response CMR + PMR, At 2 months ([1]; N = 14, FDG-PET, metabolic response rate, listed as masitinib): 12 (85.7%) n (%)
- Metabolic response PMR, At 2 months ([1]; N = 14, FDG-PET, partial metabolic response, listed as masitinib): 9 (64.2%) n (%)
- Metabolic response SMD, At 2 months ([1]; N = 14, FDG-PET, stable metabolic disease, listed as masitinib): 2 (14.3%) n (%)
- Response (RECIST) CR, 2 months ([1]; N = 30, complete response): 0 (0.0%) n (%)
- Response (RECIST) CR, Best Response ([1]; N = 30, complete response, listed as masitinib): 1 (3.3%) n (%)
- Response (RECIST) CR + PR + SD, 2 months ([1]; N = 30, disease control rate): 29 (96.7%) n (%)
- Response (RECIST) CR + PR + SD, Best Response ([1]; N = 30, disease control rate, listed as masitinib): 29 (96.7%) n (%)
- Response (RECIST) CR + PR, 2 months ([1]; N = 30, overall response rate): 6 (20.0%) n (%)
- Response (RECIST) CR + PR, Best Response ([1]; N = 30, overall response rate, listed as masitinib): 16 (53.3%) n (%)
- Response (RECIST) PR, Best Response ([1]; N = 30, partial response, listed as masitinib): 15 (50.0%) n (%)
- Response (RECIST) PD, Best Response ([1]; N = 30, progressive disease, listed as masitinib): 1 (3.3%) n (%)
- Response (RECIST) SD, Best Response ([1]; N = 30, stable disease, listed as masitinib): 13 (43.3%) n (%)
- tumour response according to changes in tumour size (RECIST), evaluable patients ([1]; after 2 months of masitinib): 20%
- tumour response according to metabolic response using FDG-PET ([1]; after 2 months of masitinib): 86%
- tumour response in patients assessed with DCE-US ([1]; after 2 months of masitinib): 75%
- patients with confirmed PR after 2 months, Simon first stage ([1]; first 14 patients): 4/14
- Median time to first objective response ([1]; range: 0.8-23.8 months): 5.6 months
- solubility in 0.1 M HCl (Solubility; 0.1 M HCl): freely soluble
- solubility in 0.1 M NaOH (Solubility; 0.1 M NaOH): practically insoluble
- solubility in dimethylsulfoxide (Solubility; dimethylsulfoxide): freely soluble
- solubility in ethanol (Solubility; ethanol): slightly soluble
- solubility in n-hexane (Solubility; n-hexane): practically insoluble
- solubility in propylene glycol (Solubility; propylene glycol): slightly soluble
- solubility in water (Solubility; water): soluble

Reference: patent US20110201620A1, “2-(3-AMINOARYL) AMINO-4-ARYL-THIAZOLES AND THEIR USE AS C-KIT INHIBITORS” (AB SCIENCE, priority 2002, published 2011)
